Test results reported in ChEMBL document CHEMBL5653610, “The novel phosphodiesterase 10A inhibitor THPP-1 has antipsychotic-like effects in rat and improves cognition in rat and rhesus monkey” (Neuropharmacology, 2013).
Activity calls are given as the source filed them. The rule behind the calls is not given here.

Assays:
[1] = Unbound drug level in Wistar Hannover rat plasma at 0.1 mg/kg, po after 2 hrs by UPLC-MS analysis; format: ADME, organism-based; details: in vivo
[2] = Unbound drug level in Wistar Hannover rat plasma at 0.3 mg/kg, po after 2 hrs by UPLC-MS analysis; format: ADME, organism-based; details: in vivo
[3] = Unbound drug level in Wistar Hannover rat plasma at 1 mg/kg, po after 2 hrs by UPLC-MS analysis; format: ADME, organism-based; details: in vivo
[4] = Unbound drug level in Wistar Hannover rat plasma at 3 mg/kg, po after 2 hrs by UPLC-MS analysis; format: ADME, organism-based; details: in vivo
[5] = Unbound drug level in Wistar Hannover rat plasma at 10 mg/kg, po after 2 hrs by UPLC-MS analysis; format: ADME, organism-based; details: in vivo
[6] = Unbound drug level in Wistar Hannover rat plasma at 30 mg/kg, po after 2 hrs by UPLC-MS analysis; format: ADME, organism-based; details: in vivo
[7] = Drug level in Wistar Hannover rat CSF at 0.1 mg/kg, po after 2 hrs by UPLC-MS analysis; format: ADME, organism-based, Cerebrospinal fluid; details: read-out: Drug uptake
[8] = Drug level in Wistar Hannover rat CSF at 0.3 mg/kg, po after 2 hrs by UPLC-MS analysis; format: ADME, organism-based, Cerebrospinal fluid; details: read-out: Drug uptake
[9] = Drug level in Wistar Hannover rat CSF at 1 mg/kg, po after 2 hrs by UPLC-MS analysis; format: ADME, organism-based, Cerebrospinal fluid; details: read-out: Drug uptake
[10] = Drug level in Wistar Hannover rat CSF at 3 mg/kg, po after 2 hrs by UPLC-MS analysis; format: ADME, organism-based, Cerebrospinal fluid; details: read-out: Drug uptake
[11] = Drug level in Wistar Hannover rat CSF at 10 mg/kg, po after 2 hrs by UPLC-MS analysis; format: ADME, organism-based, Cerebrospinal fluid; details: read-out: Drug uptake
[12] = Drug level in Wistar Hannover rat CSF at 30 mg/kg, po after 2 hrs by UPLC-MS analysis; format: ADME, organism-based, Cerebrospinal fluid; details: read-out: Drug uptake
Rattus norvegicus [13] = experiment: Antipsychotic activity in Wistar Hannover rat assessed as reduction in MK-801-induced psychomotor activity at 1.5 to 4.5 mg/kg, po dosed 120 mins before MK-801 challenge and measured after 180 mins; format: functional, organism-based; details: dose 1.5-4.5 mg/kg, time 300.0 min
Rattus norvegicus [14] = experiment: Antipsychotic activity in Wistar Hannover rat assessed as reduction in MK-801-induced psychomotor activity at 3 mg/kg, po for 14 days followed by drug dosing at 3 mg/kg, po 120 mins before MK-801 challenge; format: functional, organism-based; details: time 20280.0 min
Rattus norvegicus [15] = experiment: Antipsychotic activity in Wistar Hannover rat assessed as reduction in conditioned avoidance responding at 1 to 3 mg/kg, po dosed 120 mins before testing; format: functional, organism-based; details: dose 1-3 mg/kg
Rattus norvegicus [16] = experiment: Antipsychotic activity in Wistar Hannover rat assessed as increase in recognition at 0.3 mg/kg, po dosed 90 mins before identical objects by novel object recognition test; format: functional, organism-based
Rattus norvegicus [17] = experiment: Antipsychotic activity in Wistar Hannover rat assessed as increase in recognition at 1 mg/kg, po dosed 90 mins before identical objects by novel object recognition test; format: functional, organism-based
Rattus norvegicus [18] = experiment: Reduction in locomotor activity in Wistar Hannover rat at 1 mg/kg, po dosed 90 mins before identical objects by novel object recognition test; format: functional, organism-based
Rattus norvegicus [19] = experiment: Reduction in object exploration in Wistar Hannover rat at 1 mg/kg, po dosed 90 mins before identical objects by novel object recognition test; format: functional, organism-based
Rhesus monkey [20] = experiment: Antipsychotic activity in rhesus monkey assessed as blocking of ketamine impaired performance on difficult trials at 3 mg/kg, po dosed for 4 days prior to testing and on day 5 drug was administered orally 2 h prior to testing by object retrieval detour task; format: functional, organism-based; details: Macaca mulatta, time 5.0 day
Rhesus monkey [21] = experiment: Antipsychotic activity in rhesus monkey assessed as attenuation of ketamine impaired performance on difficult trials at 3 mg/kg, po dosed for 4 days prior to testing and on day 5 drug was administered orally 2 h prior to testing by object retrieval detour task; format: functional, organism-based; details: Macaca mulatta, time 4.0 day
[22] = Total drug level in plasma of Wistar Hannover rat engaged in object retrieval detour task at 3 mg/kg, po dosed for 4 days prior to testing and on day 5 drug was administered orally 2 h prior to testing and measured after 4 hrs by UPLC-MS analysis; format: ADME, organism-based; details: time 5 day
[23] = Total drug level in plasma of […] engaged in object retrieval detour task at 10 mg/kg, po dosed for 4 days prior to testing and on day 5 drug was administered orally 2 h prior to testing and measured after 4 hrs by UPLC-MS analysis; format: ADME, organism-based; details: time 5 day
[24] = Total drug level in plasma of Wistar Hannover rat not-engaged in object retrieval detour task at 10 mg/kg, po dosed for 4 days prior to testing and on day 5 drug was administered orally 2 h prior to testing and measured after 4 hrs by UPLC-MS analysis; format: ADME, organism-based; details: time 5 day
[25] = Unbound drug level in plasma of Wistar Hannover rat engaged in object retrieval detour task at 3 mg/kg, po dosed for 4 days prior to testing and on day 5 drug was administered orally 2 h prior to testing and measured after 4 hrs by UPLC-MS analysis; format: ADME, organism-based; details: in vivo, 120 h, time 5 day
[26] = Unbound drug level in plasma of Wistar Hannover rat engaged in object retrieval detour task at 10 mg/kg, po dosed for 4 days prior to testing and on day 5 drug was administered orally 2 h prior to testing and measured after 4 hrs by UPLC-MS analysis; format: ADME, organism-based; details: in vivo, 120 h, time 5 day
[27] = Unbound drug level in plasma of Wistar Hannover rat not-engaged in object retrieval detour task at 10 mg/kg, po dosed for 4 days prior to testing and on day 5 drug was administered orally 2 h prior to testing and measured after 4 hrs by UPLC-MS analysis; format: ADME, organism-based; details: in vivo, 120 h, time 5 day
[28] = Mean drug level in plasma of Wistar Hannover rat at 10 mg/kg, po dosed as single dose after 4 hrs by UPLC-MS analysis; format: ADME, organism-based

- Cp(f) [1]: 0.6 nM
- Cp(f) [2]: 2.1 nM
- Cp(f) [3]: 4.9 nM
- Cp(f) [4]: 13.4 nM
- Cp(f) [5]: 23.8 nM
- Cp(f) [6]: 32.5 nM
- concentration at 2 h [7]: 1 nM
- concentration at 2 h [8]: 3 nM
- concentration at 2 h [9]: 4.2 nM
- concentration at 2 h [10]: 8.3 nM
- concentration at 2 h [11]: 16.1 nM
- concentration at 2 h [12]: 20.1 nM
- concentration at 120 h [22]: 592 nM
- concentration at 120 h [23]: 1600 nM
- concentration at 120 h [24]: 2820 nM
- Cp(f) [25]: 7 nM
- Cp(f) [26]: 19 nM
- Cp(f) [27]: 34 nM
- concentration at 4 h [28]: 1530 nM
Compound: COCCOc1nc(-c2ccc(Cl)nc2)nc2c1CN(C(=O)c1ncn3ccccc13)CC2 [THPP-1]
- Activity (Rattus norvegicus [13]): Dose-Dependent Effect
- Activity (Rattus norvegicus [14]): Active
- Activity (Rattus norvegicus [15]): Dose-Dependent Effect
- Activity (Rattus norvegicus [16]): Active
- Activity (Rattus norvegicus [17]): Active
- Activity (Rattus norvegicus [18]): Active
- Activity (Rattus norvegicus [19]): Active
- Activity (Rhesus monkey [20]): inactive
- Activity (Rhesus monkey [21]): Active
